SMILES strings stand for the structures. “Also recorded” adds a separate entry of the source.

Data set [1] can be described thus: Effect of estramustine phosphate and clodronate on their mutual bioavailability (serum AUC0-24h, Cmax, serum estradiol) in patients. As for the experimental part: Twelve male patients aged 62-80 were divided into two groups of six patients.
The first group of six patients were given 3200 mg daily of clodronate only for four days. On the fifth day the AUC0-24 h for the drug was calculated from serum concentrations of repeated blood samples. On the sixth day, 560 mg estramustine phosphate was add per oral to the clodronate treatment for the following four days. On day ten, the AUC0-24 h for both drugs was calculated.
The second group of six patients were give orally 560 mg daily of estramustine phosphate only for four days. On the fifth day the AUC0-24 h for the drug was calculated from serum concentrations of repeated blood samples. On the sixth day, 3200 mg clodronate was added to the estramustine phosphate treatment for the following four days. On day ten, the AUC0-24 h for both drugs was calculated.
The clodronate was provided as 400 mg capsules, and the estramustine phosphate used was estracyt in 140 mg capsules.
The method used in the analysis of the serum estramustine phosphate concentrations measures […] and is insensitive to any metabolites. The estradiol-related metabolites (estramustine and estradiol) were not analyized in connection with the bioanalysis. […] Unfortunately, estradiol was not measured after administration of estramustine phosphate alone.

The next data set concerns mouse calvaria. Kind of data set: Bone resorption assay, organ culture with 45Ca-prelabeled mouse calvaria (PTH-stimulated 45Ca release). Format: cell-based. To be noted: for bone resorption in vitro (in words): compound present during culture. The procedure:
This example used the organ culture technique with mouse calvaria.
The organ culture technique was used with ^45Ca-prelabeled mouse calvaria. The method has been described by Lerner (1987) and Ljunggren et al. (1991). Newborn mice were injected subcutaneously with ^45CaCl (1.5 μCi/animal). After four days their calvaria were dissected, split into quarters and preincubated in phenol red free CMRL 1066 medium supplemented with 0.1% bovine serum albumin and 50 μg/ml gentamicin for 24 hours at 37° C. in a humidified atmosphere of 5% CO2 in air in the presence of indomethacin (1 μmol/l) and 10 nmol/l bovine parathyroid hormone (PTH). After washing the bone pieces, the medium was changed and cultures incubated for three more days in the same medium but without indomethacin in the presence or absence of estramustine phosphate or clodronate. Resorption was measured by assaying the ^45Ca liberated into the medium using a standard technique for liquid scintillation counting. Total ^45Ca was determined after hydrolysing the calvaria in 6 mol/l HCI overnight. Bone resorption was studied in various concentrations of estramustine phosphate and the effect of estramusine phosphate present only during the preincubation stage was checked in order to study its cytotoxcity.
Results are expressed as mean ±SEM, n=5 or 10. Inhibition percentage was calculated as follows [formula]

The mark [2] stands for this setting: present only during preincubation, then washed away, concentration not given.

Take `O=P(O)(O)C(Cl)(Cl)P(=O)(O)O` [Clodronate, Disodium clodronate]: in data set [1] (human, in vivo, po), the “AUC0-24h and Cmax, alone versus concomitantly with the other drug (in words)” value is listed as “did not differ significantly”; the “bioavailability when the other drug is added (in words)” value is on record as “no effect”. Besides, the AUC0-24h Clodronate in data set [1] (male, human, in vivo, 3200 mg) amounted to 19300 ng·h/mL. Besides, the “resorption, compound present only during preincubation (in words)” value with mouse calvaria (setting [2]) is “also inhibits resorption”.
As for `C[C@]12CC[C@@H]3c4ccc(OC(=O)N(CCCl)CCCl)cc4CC[C@H]3[C@@H]1CC[C@@H]2OP(=O)([O-])[O-].[Na+].[Na+]` [Estramustine phosphate, Estramustine phosphate sodium], in data set [1] (patients, oral), the “AUC0-24h and Cmax, alone versus concomitantly with the other drug (in words)” value is listed as “differed statistically”. Further, the “bioavailability when the other drug is added (in words)” value in data set [1] (patients, oral) is listed as “almost doubled”. Moreover, the “resorption, compound present only during preincubation (in words)” value in the data set with mouse calvaria (10 μmol/l) is “slightly increased”; in the data set with mouse calvaria (100 μmol/l), “strongly inhibited”; with mouse calvaria (setting [2]), “PTH could not stimulate”. In the data set on mouse calvaria (Experiment 1, 1000 μmol/l), the “observation in culture medium” value is listed as “(precipitate)”. Further, the “bone resorption in vitro (in words)” value is “inhibited bone resorption in this in vitro model concentration-dependently and about as effectively as clodronate” with mouse calvaria; “dose-dependently inhibited; also recorded: inhibits bone resorption in vitro” in the data set with mouse calvaria (listed as estramustine phosphate sodium).

(Values after patent US20040014729A1, “Use of estramustine phosphate in the treatment of bone metastasis” (priority 2003, published 2004).)
